Laboratory results: patent US10376476B2, “Panicein compounds, compositions and uses thereof” (CENTRE NATIONAL DE LA RECHERCHE SCIENTIFIQUE, priority 2014, dated 2019)

Columns and labels:
Format in all cases: cell-based
[1] = molecular target: T1, human Patched (hPtc) expressed in yeasts (Homo sapiens, UniProt Q13635); experiment: Resistance of hPtc-expressing yeasts to other chemotherapeutic agents (yeast growth, absorbance 600 nm); settings: 10 μM paniceins; for inhibition of the resistance of yeasts to vemurafenib: 10 μM vemurafenib; for inhibition of the resistance of yeasts to cisplatine: 50 μM cisplatine; for inhibition of the resistance of yeasts to dacarbazine: 2 mM dacarbazine
T1 construct: MAP; expressed in transfected cells; host or cells: Saccharomyces cerevisiae K699
T1 sequence (Q13635 1-1447): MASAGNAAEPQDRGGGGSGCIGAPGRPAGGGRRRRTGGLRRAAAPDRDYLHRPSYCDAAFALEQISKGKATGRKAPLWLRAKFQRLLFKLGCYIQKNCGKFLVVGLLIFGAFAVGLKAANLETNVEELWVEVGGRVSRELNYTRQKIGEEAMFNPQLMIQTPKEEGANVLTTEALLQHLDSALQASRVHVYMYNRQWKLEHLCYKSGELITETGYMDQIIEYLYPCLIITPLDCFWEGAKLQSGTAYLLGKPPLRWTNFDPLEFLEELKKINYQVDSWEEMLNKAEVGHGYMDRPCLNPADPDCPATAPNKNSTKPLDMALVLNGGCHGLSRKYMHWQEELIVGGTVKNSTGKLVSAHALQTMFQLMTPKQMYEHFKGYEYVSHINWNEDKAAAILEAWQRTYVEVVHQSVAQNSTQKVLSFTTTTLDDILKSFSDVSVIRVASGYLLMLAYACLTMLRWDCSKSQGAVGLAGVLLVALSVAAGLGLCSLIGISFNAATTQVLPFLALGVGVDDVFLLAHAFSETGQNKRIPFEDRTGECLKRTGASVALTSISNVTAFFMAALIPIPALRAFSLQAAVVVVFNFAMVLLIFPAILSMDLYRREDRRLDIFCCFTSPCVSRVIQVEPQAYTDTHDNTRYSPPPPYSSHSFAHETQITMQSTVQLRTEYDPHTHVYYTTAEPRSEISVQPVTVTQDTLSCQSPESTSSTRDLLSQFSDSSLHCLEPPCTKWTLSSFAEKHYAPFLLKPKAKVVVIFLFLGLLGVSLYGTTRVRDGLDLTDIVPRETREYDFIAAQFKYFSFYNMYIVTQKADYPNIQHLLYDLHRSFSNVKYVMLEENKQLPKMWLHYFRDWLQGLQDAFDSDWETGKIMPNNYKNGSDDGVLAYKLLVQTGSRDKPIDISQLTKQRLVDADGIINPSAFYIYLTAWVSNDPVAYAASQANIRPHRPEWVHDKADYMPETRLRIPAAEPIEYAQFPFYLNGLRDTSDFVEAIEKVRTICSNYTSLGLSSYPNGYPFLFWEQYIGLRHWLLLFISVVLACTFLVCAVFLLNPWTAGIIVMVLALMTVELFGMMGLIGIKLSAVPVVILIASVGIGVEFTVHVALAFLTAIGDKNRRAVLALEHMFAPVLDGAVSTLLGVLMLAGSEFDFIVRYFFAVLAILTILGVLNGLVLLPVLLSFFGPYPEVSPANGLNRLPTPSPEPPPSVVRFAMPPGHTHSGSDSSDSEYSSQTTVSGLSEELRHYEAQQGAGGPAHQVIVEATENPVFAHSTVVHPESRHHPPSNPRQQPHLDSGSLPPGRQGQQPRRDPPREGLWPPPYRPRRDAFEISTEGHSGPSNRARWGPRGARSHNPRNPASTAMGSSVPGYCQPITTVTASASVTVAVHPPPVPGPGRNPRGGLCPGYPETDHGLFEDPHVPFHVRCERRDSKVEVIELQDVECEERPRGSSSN
Description: Paniceins were added at a final concentration of 10 μM to the yeast growth medium containing 2 mM of dacarbazine (A), 50 μM of cisplatine (B), or 10 μM of vemurafenib (C). The growth of hPtc-expressing-yeasts was measured by absorbance at 600 nm.
The expression of human Patched in yeasts confers to these yeasts the ability to grow in presence of other chemotherapeutic agents currently used to treat melanoma such as dacarbazine or cisplatine.

[2] = system: MeWo cells; experiment: Screening test 2: doxorubicin cytotoxicity, neutral red cell viability; settings: dxr 2 μM, 24 hours; for increase of cell mortality induced by dxr (dxr cytotoxicity enhancement): paniceins 10 μM
Description: (§1) Cells were grown in 96 well plates in complete DMEM medium to achieve 60% to 70% confluence. Medium was then removed and replaced with 100 μL/well of complete DMEM medium containing paniceins at 10 μM (or at increasing concentrations for EC50 measurement) or DMSO as control. After 2 hours, 100 μL of complete DMEM medium containing doxorubicin was added in half wells to obtain the final concentration of 2 μM for MDA-MB-435 and MeWo, and 1.5 μM for A375. The cell viability was measured after 24 hours. Effect of compounds P2, P3, P4 and P5 on cell viability, and dose-response for compound P5 are shown for MDA-MB-435 (A), MeWo (B) and A375 (C). D. Enhancement of dxr cytotoxicity by paniceins is represented. The means (+/−sem) of at least three independent experiments are reported.
(§2) Melanoma cells MDA-MB-435, Mewo and A375 were seeded on 96-well plates and grown 48 hours in complete DMEM medium to achieve 60% to 70% confluence. Medium was then removed and replaced with 100 μL/well of complete DMEM medium containing the compounds of interest at defined concentration or DMSO as control. After 2 hours, 100 µL of complete DMEM medium containing doxorubicin was added in half wells to obtain 2 μM doxorubicin. Plates were incubated at 37° C. in a 5% CO2/95% air water-saturated atmosphere. After 24 hours, microplates were incubated 3 hours at 37° C. with 100 μL/wells neutral red (NR) solution (50 μg/mL in DMEM). After a rapid wash with PBS at 4° C., microplates were gently tapped several times on absorbent paper. Cells were solubilized with 100 μL of a solution containing 1% acetic acid, 49% H2O, 50% ethanol by vortexing 3 minutes at 700 rpm and the absorbance at 600 nm was measured. EC50 were calculated using Regressi software.

[3] = system: A375 cells; experiment: as above; settings: 24 hours; for increase of cell mortality induced by dxr (dxr cytotoxicity enhancement): A375, paniceins 10 μM, dxr 1.5 μM
Description: as §1, §2

[4] = system: MDA-MB-435 cells; experiment: as above; settings: 24 hours; for increase of cell mortality induced by dxr (dxr cytotoxicity enhancement): MDA-MB-435, paniceins 10 μM, dxr 2 μM
Description: as §1, §2

COc1cc(C)c(CC/C(C)=C/Cc2cc(O)ccc2O)c(C)c1C [P5, Panicein A hydroquinone]
inhibition of the resistance of yeasts to vemurafenib [1]: inhibits the resistance | inhibition of the resistance of yeasts to cisplatine [1]: inhibits the resistance | inhibition of the resistance of yeasts to dacarbazine [1]: inhibits the resistance | EC50 ([2]; Homo sapiens, read-out: concentration inducing 50% of dxr cytotoxicity enhancement (EC50)): 5 µM | increase of cell mortality induced by dxr (dxr cytotoxicity enhancement) [3]: about 2 times | EC50 ([3]; Homo sapiens, A-375, A375, dxr 1.5 μM, read-out: concentration inducing 50% of dxr cytotoxicity enhancement (EC50)): 22.5 µM | EC50 ([4]; Homo sapiens, MDA-MB-435, dxr 2 μM, read-out: concentration inducing 50% of dxr cytotoxicity enhancement (EC50)): 9.3 µM

C/C(=C\Cc1cc(O)ccc1O)CCc1c(C)cc(O)c(C=O)c1C [P3, Panicein B3]
inhibition of the resistance of yeasts to vemurafenib [1]: inhibits the resistance | inhibition of the resistance of yeasts to cisplatine [1]: inhibits the resistance | inhibition of the resistance of yeasts to dacarbazine [1]: inhibits the resistance | increase of cell mortality induced by dxr (dxr cytotoxicity enhancement) [2]: about 2 times | increase of cell mortality induced by dxr (dxr cytotoxicity enhancement) [3]: no effect | increase of cell mortality induced by dxr (dxr cytotoxicity enhancement) [4]: about 2 times

Cc1cc(O)c(C=O)c(C)c1CCC1(C)C=Cc2cc(O)ccc2O1 (stereo not shown) [P4, Panicein B2]
increase of cell mortality induced by dxr (dxr cytotoxicity enhancement) [2]: about 2 times | increase of cell mortality induced by dxr (dxr cytotoxicity enhancement) [3]: no effect | increase of cell mortality induced by dxr (dxr cytotoxicity enhancement) [4]: about 2 times

C/C(=C\Cc1cc(O)ccc1O)CCc1c(C)c(O)c(O)c(C=O)c1C [P2, Panicein C]
inhibition of the resistance of yeasts to vemurafenib [1]: inhibits the resistance | inhibition of the resistance of yeasts to cisplatine [1]: inhibits the resistance | inhibition of the resistance of yeasts to dacarbazine [1]: inhibits the resistance | increase of cell mortality induced by dxr (dxr cytotoxicity enhancement) [2]: about 2 times | increase of cell mortality induced by dxr (dxr cytotoxicity enhancement) [3]: no effect | increase of cell mortality induced by dxr (dxr cytotoxicity enhancement) [4]: about 2 times
